Laboratory results as given in patent publication US8895503B2, “Pharmaceutical composition for transnasal administration of peptide hormones or cytokines” (Toray Industries, Inc., priority 2008, dated 2014).
Where no end group is shown, it is not given here.

Assays:
[1] = Nasal administration of insulin with peptides of SEQ ID NOs:1 to 6 (Example 5); conditions: for AAC: blood glucose reduction
Text: The prepared solutions were subjected to the evaluation in the same manner as in Example 1.

[2] = Nasal administration of insulin with peptide to rats (Example 1); format: in vivo, rat; conditions: male SD rats, insulin 10 IU/kg with 0.5 mM peptide or insulin only
Procedure: (§1) Male SD rats having a body weight of about 200 g were fasted for 24 hours and anesthetized by intraperitoneal injection of 50 mg/kg of pentobarbital, followed by incision of the cervical part to expose trachea. […] The tip of the tube to be inserted into the choanae was preliminarily tightly sealed with absorbent cotton and an adhesive. To prevent leakage of the drug solution, the nasopalatine duct in maxilla opening into the oral cavity was closed with a synthetic adhesive (Aron Alpha A; manufactured by Daiichi Sankyo Company, Limited).

[3] = Nasal administration of insulin, dependency on peptide concentration (Example 2); conditions: rats, only insulin, no peptide
Procedure: as §1

[4] = rats, nasal, insulin 1 IU/kg with 0.5 mM L-amino acid peptide or no peptide
[5] = blood insulin, rats, nasal, insulin 1 IU/kg with 0.5 mM L-amino acid peptide or no peptide
[6] = male, SD, rat, in vivo, inhaled or intranasal

Tmax [1, 6] | Compound | AAC [1, 4] | AUC [1, 5] | Cmax [1, 5] | PA (pharmaceutical availability, based on changes in blood glucose level) [1, 4] | blood insulin level (FIG. 1) [2] | bioavailability (BA) of insulin ([2]; vs subcutaneous insulin) | Tmax [1, 5] | BA (bioavailability, based on changes in blood insulin level) [1, 4] | increase in the blood insulin level (FIG. 8) [1, 4] | bioavailability of insulin [3]
 | CC[C@H](C)[C@H](NC(=O)[C@H](CCCCN)NC(=O)[C@@H](NC(=O)[C@H](CCC(N)=O)NC(=O)[C@@H](N)CCCNC(=N)N)[C@@H](C)CC)C(=O)N[C@@H](Cc1c[nH]c2ccccc12)C(=O)N[C@@H](Cc1ccccc1)C(=O)N[C@@H](CCC(N)=O)C(=O)N[C@@H](CC(N)=O)C(=O)N[C@@H](CCCNC(=N)N)C(=O)N[C@@H](CCCNC(=N)N)C(=O)N[C@@H](CCSC)C(=O)N[C@@H](CCCCN)C(=O)N[C@@H](Cc1c[nH]c2ccccc12)C(=O)N[C@@H](CCCCN)C(=O)N[C@@H](CCCCN)C(=O)N[C@@H](CCCNC(=N)N)C(=O)N[C@@H](CCCNC(=N)N)C(=O)N[C@@H](CCCNC(=N)N)C(=O)N[C@@H](CCCNC(=N)N)C(=O)O [SEQ ID NO: 6] | 14.4 % glu. reduc. h | 55.2 μU · h./mL | 187.3 μU/mL | 15.7% |  |  |  |  |  | 
11.7 min | KKWKMRRNQFWIKIQR-OH [SEQ ID NO: 2] | 13.5 % glu. reduc. h |  |  | 14.7% |  |  |  |  |  | 
11.3 min | KQIKIWFQNKKMKWKK-OH [SEQ ID NO: 4] | 10.3 % glu. reduc. h |  |  | 11.2% |  |  |  |  |  | 
16.0 min | KQIRIWFQNKKMRWRR-OH [SEQ ID NO: 5] | 21.5 % glu. reduc. h |  |  | 23.4% |  |  |  |  |  | 
18.3 min | RQIRIWFQNRRMRWRR-OH [SEQ ID NO: 3] | 17.1 % glu. reduc. h |  |  | 18.6% |  |  |  |  |  | 
 | insulin [reference compound] | 4.3 % glu. reduc. h | 6.4 μU · h./mL |  | 4.7% | hardly exhibited increase in the blood insulin level | 0.8% | 10.8 min | 2.3% | could be hardly observed | 1.7%
